The text below walks through data of patent US5861387A, “Controlled release systems and low dose androgens” (Endorecherche Inc., priority 1995, dated 1999).

The subject of the first data set is antibody 144A. As to the kind of experiment: MPA radioimmunoassay, specificity of antibody 144A. It is filed as binding, rabbit.
Settings: not given
The text has this: Antibody 144A was raised in rabbits against 17-hydroxyprogesterone-3-0-carboxymethyloxime-BSA. The labeled steroid used in the radioimmunoassay (RIA) was methyl-17α-hydroxyprogesterone acetate, 6α-[1,2-^3 H(N)]- obtained from NEN (CAT NO: NET 480) while the reference preparation was medroxyprogesterone acetate (MPA) obtained from Steraloids. The assay buffer used was 0.1% gelatin in 0.1M sodium phosphate, 0.15M sodium chloride, 0.1% sodium azide, pH 7.2. The extraction solvent mixture was ethyl ether-acetone (9:1, v:v) [EEA] while the LH-20 chromatography solvent mixture was iso-octane: toluene: methanol (90:5:5;v:v:v) [IOTH].
One ml of plasma was extracted twice with 5 ml of EEA. The extracts were evaporated to dryness with nitrogen and the remaining residue was dissolved in one ml of IOTH. The extracts were then subjected to LH-20 chromatography on […] columns (Coming CAT NO: 05 722A) filled with 2 g of LH-20 (Pharmacia). The gel was washed with 30 ml of IOTH before addition of one ml of sample and elution with IOTH. The first 6 ml were discarded. The following 10, 16.5 and 27.5 ml of eluent were fraction I (progesterone), II (MPA) and III (17-LH-progesterone), respectively. Fraction II was evaporated to dryness and reconstituted in 1.5 ml of assay buffer.
To each 12 x 75 mm borosilicate test tube was added: 0.2 ml containing 25,000 DPM of tritiated steroid, 0.5 ml of reference preparation ranging from 5 to 5000 pg/tube or 0.5 ml of extracted sample fraction II, 0.2 ml of antiserum 144A diluted 1/5000 or 0.2 ml of assay buffer to account for non specific binding. The tubes were then incubated overnight at 4° C. Then, 0.2 ml 2% charcoal Norit-A, 0.2% Dextran T-70 diluted in water was added. The tubes were then shaken gently and, after 10 min, they were centrifuged at 2000 x g for 10 min. The supernatant was mixed with 8 ml of Formula-989 (NEN: NEF-989) and the radioactivity was counted in a β-counter.
On to `C[C@]12CCC(=O)C=C1CC[C@@H]1[C@@H]2[C@@H](O)C[C@@]2(C)[C@H]1CC[C@]2(O)C(=O)CO` [cortisol], for which the “cross-reactivity with antibody 144A” value is recorded as “less than 0.1%”.

For `CC(=O)[C@H]1CC[C@H]2[C@@H]3CCC4=CC(=O)CC[C@]4(C)[C@H]3CC[C@]12C` [progesterone], the “cross-reactivity with antibody 144A” value was “less than 0.1%”.

Regarding `C[C@]12CCC(=O)C=C1CC[C@@H]1[C@@H]2CC[C@]2(C)C(=O)CC[C@@H]12` [androstenedione], the “cross-reactivity with antibody 144A” value is “less than 0.1%”.

For the compound `C[C@]12CC[C@@H](O)C[C@@H]1CC[C@@H]1[C@@H]2CC[C@]2(C)[C@@H](O)CC[C@@H]12` [3α-diol], the “cross-reactivity with antibody 144A” value is reported as “less than 0.1%”.

Turning to `C[C@H](O)[C@H]1CC[C@H]2[C@@H]3CCC4=CC(=O)CC[C@]4(C)[C@H]3CC[C@]12C` [20α-OH-Prog], the “cross-reactivity with antibody 144A” value was “less than 0.1%”.

For the compound `C[C@]12CC[C@@H]3c4ccc(O)cc4CC[C@H]3[C@@H]1CCC2=O` [estrone], the “cross-reactivity with antibody 144A” value is listed as “less than 0.1%”.

Take `CC(=O)[C@H]1CC[C@H]2[C@@H]3CC=C4C[C@@H](O)CC[C@]4(C)[C@H]3CC[C@]12C` [pregnenolone]: the “cross-reactivity with antibody 144A” value was “less than 0.1%”.

Turning to `CC(=O)[C@@]1(O)CC[C@H]2[C@@H]3CC=C4C[C@@H](O)CC[C@]4(C)[C@H]3CC[C@@]21C` [17-OH-pregnenolone], the “cross-reactivity with antibody 144A” value was “less than 0.1%”.

The test system of the next data set is bone.
Test: not given
The following applies: 24-26 months, double-blind; cited from earlier work.
As to `C[C@]12C=CC(=O)C=C1CC[C@@H]1[C@@H]2CC[C@@]2(C)[C@H]1CC[C@]2(C)O` [methandrostanolone], the “effect on postmenopausal osteoporosis (total body calcium)” value is “positive and relatively long-term”.

The data set is the same for the next values; noted with them: in vivo; cited from earlier work.
Turning to Vitamin D, the “bone resorption, osteoporotic women” value was “only reduced bone resorption”.

`C[C@]12Cc3c[nH]nc3C[C@@H]1CC[C@@H]1[C@@H]2CC[C@@]2(C)[C@H]1CC[C@]2(C)O` [stanozolol]: the bone mass result was “increase in total bone mass”.

The data set is the same for the next values; noted with them: randomized study in postmenopausal women; cited from earlier work.
As to `C[C@]12Cc3c[nH]nc3C[C@@H]1CC[C@@H]1[C@@H]2CC[C@@]2(C)[C@H]1CC[C@]2(C)O` [stanozolol], the side effects result was “side effects were recorded in the majority of patients”.

The subject of a further data set is human breast cancer ZR-75-1 cells, androgen receptor. As to the kind of experiment: Androgenic (androgen receptor) activity in ZR-75-1 cells: cell growth and GCDFP-15/GCDFP-24 secretion. It is filed as cell-based. The following applies: ZR-75-1 cells, low concentrations. The protocol: Maintenance of stock cultures The ZR-75-1 human breast cancer cell line can be obtained from the American Type Culture Collection (Rockville, Md.). The cells are routinely cultured in phenol red-free RPMI 1640 medium supplemented with 10 nM E2, 15 mM Hepes, 2 mM L-glutamine, 1 mM sodium pyruvate, 100 IU penicillin per ml, 100 μg streptomycin sulfate per ml, and 10% (v/v) fetal bovine serum (FBS), in a water-saturated atmosphere of 95% air: 5% CO2 at 37° C.
Stock cultures in their logarithmic growth phase are harvested with 0.05% trypsin/0.02% EDTA (w/v) in Hanks' balanced salts solution and resuspended in E2- and phenol red-free RPMI 1640 medium containing 5% (v/v) dextran-coated charcoal (DCC)-treated FBS and 500 ng of bovine insulin per ml, but otherwise supplemented as described above for maintenance of stock cultures. Cells were plated in 24-well Linbro culture plates (Flow Laboratories) at a final density of 0.5-4.0×10^4 cells/well.
Fourty-eight hours after plating, fresh SD medium containing the appropriate concentrations of steroids are added. […] The incubation media are replaced every other day and cells are harvested by trypsinization after 12 days of treatment, unless otherwise indicated. Cell number can be determined with a Coulter Counter.
Calculations and statistical analyses Apparent IC50 values are calculated using an iterative least squares regression (Rodbard, Endocrinology 94:1427-1437,1974), while apparent inhibition constants (Ki values) are calculated according to Cheng and Prusoff (Biochem. Pharmacol. 22: 3099-3108,1973).
In addition to inhibition of cell growth, the secretion of two glycoproteins, namely gross cystic disease fluid protein-15 (GCDFP-15) and GCDFP-24 is markedly stimulated by androgens (Simard et al., Mol. Endocrinol. 3: 694-702, 1989; Simard et al., Endocrinology 126: 3223-3231, 1990).
To assist in determining the activity of the potential compounds on the various steroid receptors, androgen, glucocorticoid, progesterone and estrogen-receptor-mediated activities of synthetic progestins and anabolic steroids can be measured in ZR-75-1 human breast cancer cells using cell growth as well as GCDFP-15 and GCDFP-24 release as parameters of response (Poulin and Labrie, Cancer Res. 46: 4933-4937, 1986; Poulin et al., Breast Cancer Res. Treatm. 12: 213-225, 1988; Poulin et al., Breast Cancer Res. Treatm. 13: 161-172, 1989; Poulin et al., Breast Cancer Res. Treatm. 13: 265-276, 1989; Simard et al., Mol. Endocrinol. 3: 694-702, 1989; Simard et al., Endocrinology 126: 3223-3231, 1990).
In order to analyze the interactions of synthetic progestins or anabolic steroids with the androgen receptor (AR) and glucocorticoid receptor (GR) in their inhibitory action on cell growth, one takes advantage of the additivity of the anti-proliferative effects of androgens and glucocorticoids in this cell line (Poulin et al., Breast Cancer Res. Treatm. 12: 213-225, 1988; Hatton and Labrie, F., unpublished data). […] On the other hand, the effect of a putative androgen can similarly be measured following saturation of GR by dexamethasone (DEX). […] Thus, in the presence of excess androgen (1 μM DMT) in the presence of E2 and insulin, glucocorticoid effects can be assessed with precision and with no interference by the other receptors. The same applies to study of the role of AR when the cells are incubated in the presence of excess glucocorticoid (3 μM DEX), in the presence of E2 and insulin.
`CC(=O)O[C@]1(C(C)=O)CC[C@H]2[C@@H]3C=C(Cl)C4=CC(=O)CC[C@]4(C)[C@H]3CC[C@@]21C` [chlormadinone acetate]: the androgenic activity entry is reported as “possess androgenic activity at low concentrations”.

Turning to `C#C[C@]1(O)CC[C@H]2[C@@H]3CCC4=CC(=O)CC[C@]4(C)[C@H]3CC[C@@]21C` [ethisterone], the androgenic activity entry was “possess androgenic activity at low concentrations”.

For `C[C@]12C/C(=C/O)C(=O)C[C@@H]1CC[C@@H]1[C@@H]2CC[C@@]2(C)[C@H]1CC[C@]2(C)O` [oxymetholone], the androgenic activity entry is on record as “possess androgenic activity at low concentrations”.

Regarding `C[C@]12CC[C@H]3[C@@H](CCC4=CC(=O)CC[C@@H]43)[C@@H]1CC[C@@H]2O` [Nor-testosterone], the androgenic activity result is “possess androgenic activity at low concentrations”.

Take `C[C@]12COC(=O)C[C@@H]1CC[C@@H]1[C@@H]2CC[C@@]2(C)[C@H]1CC[C@]2(C)O` [oxandrolone]: the androgenic activity result is listed as “possess androgenic activity at low concentrations”.

In the case of `C[C@@H]1C[C@@]2(C)[C@@H](CC[C@@H]3[C@@H]2CC[C@]2(C)[C@@H](O)CC[C@@H]32)CC1=O` [dromostanolone], the androgenic activity entry is reported as “possess androgenic activity at low concentrations”.

With `C[C@]12C=CC(=O)C=C1CC[C@@H]1[C@@H]2CC[C@@]2(C)[C@H]1CC[C@]2(C)O` [methandrostanolone], the androgenic activity result is reported as “possess androgenic activity at low concentrations”.

Turning to `C[C@H]1CC2=CC(=O)CC[C@]2(C)[C@H]2CC[C@@]3(C)[C@@H](CC[C@]3(C)O)[C@H]12` [calusterone, 7β,17α-dimethyltestosterone], the androgenic activity entry is on record as “possess androgenic activity at low concentrations”.

On to `C#C[C@]1(O)CC[C@H]2[C@@H]3CCC4=Cc5oncc5C[C@]4(C)[C@H]3CC[C@@]21C` [danazol], for which the androgenic activity result was “possess androgenic activity at low concentrations”.

For the compound `C[C@]12Cc3c[nH]nc3C[C@@H]1CC[C@@H]1[C@@H]2CC[C@@]2(C)[C@H]1CC[C@]2(C)O` [stanozolol], the androgenic activity entry is “possess androgenic activity at low concentrations”.
